SMILES strings stand for the structures.

In the test the test system is renal cancer patients. Briefly: Clinical outcome of renal cancer patients treated with targeted drugs (nibs). It is filed as in vivo, human. The note with it: for # of transcriptomes taken from responders: sustained stabilization of tumor progress; for # of transcriptomes taken from non-responders: tumor progression despite the applied treatment. As to the method:
A set of samples taken from the tumors of renal cancer patients who were treated at Clinical Hospital of the Hertzen Cancer Institute in Moscow. These samples were examined using the Illumina HT-12 platform at Medical Center of Lethbridge University in Canada. As a reference normal renal tissue, the dataset GSE49972 (Karlsson et al., 2014) obtained on the same platform, was used. […] The overview of renal cancer transcriptomes selected for the V-dataset, is shown below in Table 3.
As an example, we list here the details of case history for one of the patient, who has been a responder to Sunitinib treatment.
Person; the clear cell cancer in left kidney; disease progression stage T3N0M1, distant metastases to lungs and skeleton. Surgery has not been performed due to the overall progression of the disease. Before the chemotherapy for distant metastases, the patient received the symptomatic radiation therapy of 30 Gy on the pelvic and femoral zone. Two months after the patient received the neo-adjuvant Sunitinib therapy in overall dose of 50 mg.
As long as two years after the treatment, the patient was still alive and continued to receive the adjuvant Sunitinib therapy.

For the molecule `Cc1ccc(Nc2nccc(N(C)c3ccc4c(C)n(C)nc4c3)n2)cc1S(N)(=O)=O` [Pazopanib], the “# of transcriptomes taken from responders” value came out at 4 and the “# of transcriptomes taken from non-responders” value is reported as 3.

Take `CNC(=O)c1cc(Oc2ccc(NC(=O)Nc3ccc(Cl)c(C(F)(F)F)c3)cc2)ccn1` [Sorafenib]: the “# of transcriptomes taken from responders” value is listed as 13 and the “# of transcriptomes taken from non-responders” value is 15.

On to `CCN(CC)CCNC(=O)c1c(C)[nH]c(/C=C2\C(=O)Nc3ccc(F)cc32)c1C` [Sunitinib], for which the “# of transcriptomes taken from responders” value was 5 and the “# of transcriptomes taken from non-responders” value is recorded as 10.
